In patent US9084812B2, “Composition useful for the prevention or reduction of the progression of prostate cancer” (SIGMA-TAU INDUSTRIE FARMACEUTICHE RIUNITE S.P.A., priority 2008, dated 2015):
“And” between values parts separate entries of the source, which are not always exact repeats. Equal values may be shown once.

Experiments:
LNCaP cells = assay: MTT colorimetric cell proliferation assay, LNCaP; format: cell-based, human; design: Absorbance 540 nm, single wells (N° 1-10) / Absorbance 540 nm, Mean / LNCaP cell proliferation, Mean: unit not given here; details: for % inhib: vs control
Protocol: (§1) For the experiments reported in the following established human prostate carcinoma cell lines LNCaP and PC3 (obtained from the American Type Culture Collection Rockville, Md.) were used. The LNCaP cells were cultured in RPMI 1640 medium (Life Technologies, Rockville, Md.), supplemented with 10% Fetal Bovine Serum (FBS) and 1% Penicillin and Streptomycin. The cells were incubated at 37 degree C. in a humidified atmosphere of 5% CO2 in air. Both sets of cell cultures were grown to 80% confluence in 10 cm tissue culture flasks and split 1:8. The cells were plated in 96 cell plates and allowed to attach and reach 60-70% confluence before being used for experimentation. […] Cells that were used as control were incubated with same amount of PBS in complete cell medium. The effects of lycopene (5 mmol/L], selenium (30 ng/ml), zinc (10 μg/ml), serenoa (10 μg/ml), and soya isoflavon (10 μg/ml) were also tested by adding them to the cell culture alone or in combination with the green tea extract and pomegranate extract. The cellular proliferation of the cells was determined using the 3-(4,5-dimethylthiazol-2-yl)-2,5-diphenyltetrazolium (MIT) colorimetric assay following 24 hours of incubation at 37° C. with or without the test agents. The MTT ([…]) was added to all the wells and incubated for a further 2 hr. The plate was than centrifuged at 500×g for 5 min at 4 degree C. The MIT solution was removed from the wells by careful aspiration and buffered DMSO (0.1 ml) was added to each of the wells and plates shaken for 15 mins. The absorbance was measured on a microplate reader at the wavelength of 540 nm. The effect of each compound alone and in combination on cell growth was assessed as the percentage of cell viability in which the untreated control cells were taken as those being completely viable and allowed to grow freely.

PC3 cells = assay: MTT colorimetric cell proliferation assay, PC3; format: cell-based, human; design: Absorbance 540 nm, single wells (N° 1-8) / Absorbance 540 nm, Mean / PC3 cell proliferation, single wells (N° 1-8) / PC3 cell proliferation, Mean: unit not given here; details: for Absorbance 540 nm, single wells (N° 1-8): lycopene 5 mmol/L, selenium 30 ng/ml, zinc 10 μg/ml; for % inhib: vs control
Protocol: as §1

[1] = Table 1, 24 hours incubation, mean of 10 wells
[2] = Table 2, 24 hours incubation, green tea 40 μg/ml, pomegranate 40 μg/ml
[3] = Table 2, 24 hours incubation, mean of 8 wells

| SMILES | Absorbance 540 nm, single wells (N° 1-10) (LNCaP cells; Table 1, 24 hours incubation, green tea 40 μg/ml, pomegranate 40 μg/ml, lycopene 5 mmol/L, selenium 30 ng/ml, zinc 10 μg/ml) | Absorbance 540 nm, Mean (LNCaP cells; [1]) | % inhib (LNCaP cells; Table 1, 24 hours incubation) [%] | Absorbance 540 nm, single wells (N° 1-8) (PC3 cells; [2]) | Absorbance 540 nm, Mean (PC3 cells; [3]) | % inhib (PC3 cells; Table 2, 24 hours incubation) [%] | LNCaP cell proliferation, Mean (LNCaP cells; Table 3, 24 hours incubation, mean of 10 wells) | % inhib (LNCaP cells; Table 3, 24 hours incubation) [%] | PC3 cell proliferation, single wells (N° 1-8) (PC3 cells; Table 4, 24 hours incubation, green tea 40 μg/ml, pomegranate 40 μg/ml, serenoa 10 μg/ml, soya isoflavon 10 μg/ml, L-carnitine) | PC3 cell proliferation, Mean (PC3 cells; Table 4, 24 hours incubation, mean of 8 wells) | % inhib (PC3 cells; Table 4, 24 hours incubation) [%] |
| --- | --- | --- | --- | --- | --- | --- | --- | --- | --- | --- | --- |
| CC(C)=CCC/C(C)=C/C=C/C(C)=C/C=C/C(C)=C/C=C/C=C(C)/C=C/C=C(C)/C=C/C=C(\C)CCC=C(C)C [C, lycopene] | 312 and 317 and 301 and 329 and 315 and 327 and 353 and 341 | 324 | 6.4 | 377 and 314 and 322 and 309 and 299 and 316 and 382 and 308 | 328 | 11.4 | – | – | – | – | – |
| [Se] [D, selenium] | – | 311 | 9.8 | 309 and 341 and 345 and 286 and 292 and 313 and 321 and 374 | 323 | 12.7 | – | – | – | – | – |
| [Zn] [E, zinc] | – | 325 | 5.7 | 355 and 322 and 395 and 344 and 312 and 321 and 339 | 342 | 7.8 | – | – | – | – | – |
| C[N+](C)(C)C[C@H](O)CC(=O)[O-] [H, L-carnitine] | – | – | – | – | – | – | 347 | 3.3 | 366 and 341 and 387 and 320 and 378 and 392 and 385 | 369 | 2.6 |
